pIC50: −log10 of the molar value.
Experiments:
Mus musculus [1] = experiment: Anticonvulsant activity in mouse assessed as protection against maximal electroshock induced seizure at ip administration for 5 mins; type: functional
[2] = Toxicity in Swiss albino mouse assessed as lethality at 30 mg/kg,ip; type: organism-based; conditions: in vivo, read-out: Activity
Mus musculus [3] = experiment: Anticonvulsant activity in Swiss albino mouse assessed as protection against Sc-PTZ induced seizure at po administration; type: functional
[4] = Toxicity in Swiss CD-1 mouse assessed as mortality at 100 mg/kg,ip; type: organism-based; conditions: in vivo
Mus musculus [5] = experiment: Anticonvulsant activity in mouse assessed as inhibition of maximal electroshock induced seizure at 200 mg/kg,po administration for 120 mins; type: functional; conditions: 2 h
Rattus norvegicus [6] = species: Rattus norvegicus; experiment: Inhibition of sodium uptake in rat cerebral cortical synaptosomes at 30 uM incubated for 30 mins by scintillation counting analysis; type: functional; conditions: Cerebral cortex, Synaptosome
Rattus norvegicus [7] = experiment: Anticonvulsant activity in Wistar rat assessed as protection against maximal electroshock induced seizure by measuring median effective dose at po administration; type: functional
Rattus norvegicus [8] = species: Rattus norvegicus; experiment: Inhibition of sodium uptake in rat cerebral cortical synaptosomes at 300 uM incubated for 30 mins by scintillation counting analysis; type: functional; conditions: Cerebral cortex, Synaptosome
[9] = Displacement of 3[H]BTX from rat cerebral cortical synaptosomes voltage-sensitive sodium channel incubated for 1.5 hrs by scintillation counting analysis; type: subcellular, Cerebral cortex, Synaptosome
Rattus norvegicus [10] = species: Rattus norvegicus; experiment: Inhibition of sodium uptake in rat cerebral cortical synaptosomes at 100 uM incubated for 30 mins by scintillation counting analysis; type: functional; conditions: Cerebral cortex, Synaptosome
Rattus norvegicus [11] = experiment: Anticonvulsant activity in Wistar rat assessed as protection against maximal electroshock induced seizure at po administration; type: functional
[12] = Protective index, ratio of TD50 for toxicity in Wistar rat assessed as median toxicity dose at po administration by rotorod test to ED50 for anticonvulsant activity in Wistar rat assessed as protection against maximal electroshock induced seizure at po administration; type: organism-based; conditions: in vivo, read-out: Ratio TD50/ED50
[13] = Protective index, ratio of TD50 for toxicity in Sc-PTZ induced Swiss albino mouse seizure model assessed as median neurotoxicity dose at po administration by rotorod test to ED50 for anticonvulsant activity in Swiss albino mouse assessed as protection against Sc-PTZ induced seizure at po administration; type: organism-based; conditions: in vivo, read-out: Ratio TD50/ED50
Mus musculus [14] = experiment: Anticonvulsant activity in CD-1 mouse assessed as protection against 6-Hz Psychomotor induced seizure at ip administration; type: functional
Mus musculus [15] = experiment: Anticonvulsant activity against 3-MP induced Swiss mouse seizure model assessed as inhibition of tonic seizures at 50 mg/kg,ip administration for 30 mins; type: functional; conditions: 0.5 h
[16] = Toxicity in bicuculline induced Swiss mouse seizure model assessed as death at 50 mg/kg,ip administration for 30 mins; type: organism-based; conditions: in vivo, read-out: Activity
Mus musculus [17] = experiment: Anticonvulsant activity in Swiss mouse assessed as protection against Sc-PTZ induced seizure at ip administration; type: functional
Mus musculus [18] = experiment: Anticonvulsant activity against bicuculline induced Swiss mouse seizure model assessed as inhibition of tonic seizures at 50 mg/kg,ip administration for 30 mins; type: functional; conditions: 0.5 h
Mus musculus [19] = experiment: Anticonvulsant activity against 3-MP induced Swiss mouse seizure model assessed as inhibition of clonic seizures at 50 mg/kg,ip administration for 30 mins; type: functional; conditions: 0.5 h
[20] = Toxicity in 3-MP induced Swiss mouse seizure model assessed as death at 50 mg/kg,ip administration for 30 mins; type: organism-based; conditions: in vivo, read-out: Activity
Mus musculus [21] = experiment: Anticonvulsant activity against bicuculline induced Swiss mouse seizure model assessed as inhibition of clonic seizures at 50 mg/kg,ip administration for 30 mins; type: functional; conditions: 0.5 h
Mus musculus [22] = experiment: Anticonvulsant activity in Albino mouse assessed as protection against maximal electroshock induced seizure at ip administration for 30 mins; type: functional; conditions: 0.5 h
[23] = Toxicity in Swiss albino mouse assessed as median toxicity dose at ip administration; type: organism-based; conditions: in vivo
[24] = Displacement of 3[H]BTX from rat brain membrane voltage-sensitive sodium channel incubated for 1.5 hrs by scintillation counting analysis; type: cell membranes
Mus musculus [25] = experiment: Anticonvulsant activity in Swiss albino mouse assessed as protection against maximal electroshock induced seizure at ip administration; type: functional
Mus musculus [26] = experiment: Anticonvulsant activity in Swiss albino mouse brain assessed as increase in GABA level at 30 mg/kg,ip measured after 2 hrs of post-administration by spectrophotometric method; type: functional
Mus musculus [27] = experiment: Anticonvulsant activity in Swiss albino mouse assessed as protection against Sc-PTZ induced seizure at ip administration; type: functional
Mus musculus [28] = experiment: Anticonvulsant activity in Swiss albino mouse brain assessed as increase in GABA level at 30 mg/kg,ip measured after 7 days of post-administration by spectrophotometric method; type: functional; conditions: time 7 day
Mus musculus [29] = experiment: Anticonvulsant activity in Albino mouse brain assessed as increase in GABA level at 30 to 300 mg/kg,ip by spectrophotometric method; type: functional; conditions: dose 30-300 mg/kg
[30] = Protective index, ratio of TD50 for toxicity in Albino mouse assessed as median neurotoxicity dose at ip administration by rotorod test to ED50 for anticonvulsant activity in Albino mouse assessed as protection against Sc-PTZ induced seizure at ip administration; type: organism-based; conditions: in vivo, read-out: Ratio TD50/ED50
Mus musculus [31] = experiment: Anticonvulsant activity in Albino mouse assessed as protection against maximal electroshock induced seizure at ip administration; type: functional
[32] = Protective index, ratio of TD50 for toxicity in Albino mouse assessed as median neurotoxicity dose at ip administration by rotorod test to ED50 for anticonvulsant activity in Albino mouse assessed as protection against maximal electroshock induced seizure at ip administration; type: organism-based; conditions: in vivo, read-out: Ratio TD50/ED50
Mus musculus [33] = experiment: Anticonvulsant activity in Albino mouse assessed as protection against Sc-PTZ induced seizure at ip administration; type: functional
Rattus norvegicus [34] = experiment: Anticonvulsant activity in rat assessed as protection against Sc-metrazol induced seizure at po administration; type: functional
Mus musculus [35] = experiment: Anticonvulsant activity in mouse assessed as protection against Sc-metrazol induced seizure at po administration; type: functional
Mus musculus [36] = experiment: Anticonvulsant activity in Swiss albino mouse assessed as inhibition of maximal electroshock induced seizure at ip administration; type: functional
Mus musculus [37] = experiment: Anticonvulsant activity in mouse assessed as protection against maximal electroshock induced seizure at po administration; type: functional
[38] = Protective index, ratio of TD50 for toxicity in rat assessed as median toxicity dose at po administration by rotorod test to ED50 for anticonvulsant activity in rat assessed as protection against maximal electroshock induced seizure at po administration; type: organism-based; conditions: in vivo, read-out: Ratio TD50/ED50
Rattus norvegicus [39] = experiment: Anticonvulsant activity in rat assessed as protection against maximal electroshock induced seizure at po administration; type: functional
Rattus norvegicus [40] = experiment: Anticonvulsant activity in Wistar rat assessed as protection against maximal electroshock induced seizure at po administration for 60 mins; type: functional; conditions: 1 h
Rattus norvegicus [41] = experiment: Anticonvulsant activity against maximal electroshock induced seizure in Wistar rat assessed as reduction of time spent in extension phase at 50 mg/kg,po administration; type: functional

O=C(NC1CCCCC1)C(c1ccc(Cl)cc1)N1Cc2cnnn2-c2ccccc2C1=O (stereo not drawn)
Activity (Mus musculus [1]): 100%

O=C(NC1CCCCC1)C(c1ccc(F)cc1)N1Cc2cnnn2-c2ccccc2C1=O (stereo not drawn)
Activity (Mus musculus [1]): 87.5%

COc1ccc(NC(=O)CN2C(=O)C3(Nc4ccccc4-c4nc(=O)c(C)nn43)c3ccccc32)cc1 (stereo not drawn)
mortality [2]: 20%

O=C(O)CCCCCn1c(-c2ccccc2)nc(-c2ccccc2)c1-c1ccccc1
Activity (Mus musculus [3]): 100%

CCOc1ccccc1N1CCN(CCCN2CCCC2=O)CC1
mortality [4]: 25%

CNS(=O)(=O)OC[C@]12OC[C@@H]3OC(C)(C)O[C@@H]3C1OC(C)(C)O2 (stereo partly drawn)
inhibition in vivo at 200 mg/kg (Mus musculus [5]): ≥ 80%

CC(=O)O[C@@H]1Cc2ccccc2N(C(N)=O)c2ccccc21
inhibition (Rattus norvegicus [6]): 17.9% | ED50 (Rattus norvegicus [7]): 4.7 mg/kg | inhibition (Rattus norvegicus [8]): 73.2% | pIC50 [9]: 3.85 | inhibition (Rattus norvegicus [10]): 57.7% | Activity (Rattus norvegicus [11]): 5.9% | selectivity ratio [12]: > 91.7

C=CCC(CC(C)C)C(=O)O (racemic)
selectivity ratio [13]: 3.2

CCCC(CCC)C(=O)O [VALPROIC ACID]
ED50 (Mus musculus [14]): 131 mg/kg

NC(=O)N1c2ccccc2C=Cc2ccccc21 [CARBAMAZEPINE]
inhibition in vivo at 50 mg/kg (Mus musculus [15]): 0% | mortality at 0.5 h [16]: 40% | ED50 (Mus musculus [17]): > 100 mg/kg | inhibition in vivo at 50 mg/kg (Mus musculus [18]): 0% | inhibition in vivo at 50 mg/kg (Mus musculus [19]): 80% | mortality at 0.5 h [20]: 90% | inhibition in vivo at 50 mg/kg (Mus musculus [21]): 100%

O=C1Nc2ccc(Cl)cc2C(c2ccccc2)=NC1/N=N/c1ccc(F)cc1 (stereo not drawn)
Activity (Mus musculus [22]): 100%

O=C1CCCN1CC(O)CN1CCN(c2ccccc2O)CC1 (stereo not drawn)
mortality [4]: 14.2%

CCCC(CCC)C(=O)[O-].[Na+] [VALPROATE SODIUM]
Activity (Mus musculus [3]): 83% | ED50 (Mus musculus [17]): 149 mg/kg

CCCC(CCC)c1nnc(S)n1-c1ccccc1
TD50 [23]: 371 mg/kg

NC(=O)N1c2ccccc2CC([N+](=O)[O-])c2ccccc21 (stereo not drawn)
pIC50 [24]: 2.64

O=C1N=C(N2C(=S)N=C(c3ccc(F)cc3)CC2c2ccc(O)cc2)CNN1 (stereo not drawn)
ED50 (Mus musculus [25]): 22.5 mg/kg | Activity (Mus musculus [26]): 77.42 µg | ED50 (Mus musculus [27]): 285 mg/kg | TD50 [23]: 389 mg/kg | Activity (Mus musculus [28]): 78.96 µg

CC1(C)O[C@H]2CO[C@]3(COS(=O)(=O)N=[N+]=[N-])OC(C)(C)OC3[C@H]2O1 (stereo partly drawn)
inhibition in vivo at 200 mg/kg (Mus musculus [5]): ≥ 80%

CC(=O)OC1Cc2ccccc2N(C(N)=O)c2ccccc21 (stereo not drawn)
inhibition (Rattus norvegicus [6]): 42.2% | inhibition (Rattus norvegicus [8]): 82.1% | pIC50 [9]: 3.86 | inhibition (Rattus norvegicus [10]): 61.8% | Activity (Rattus norvegicus [11]): 54.4%

CN(C)c1ccc(/C=N/Nc2nnc(-c3ccccc3)nc2Cc2cccc(Cl)c2)cc1
Activity (Mus musculus [29]): 39.7 mg | selectivity ratio [30]: 4.73 | ED50 (Mus musculus [31]): 54.3 mg/kg | selectivity ratio [32]: 8.01 | ED50 (Mus musculus [33]): 92 mg/kg

CONC(=O)C1C(C)(C)C1(C)C
ED50 (Rattus norvegicus [34]): 35 mg/kg | ED50 (Mus musculus [35]): 74 mg/kg

COc1ccccc1/C=C1/N=C(c2ccccc2)c2cc([N+](=O)[O-])ccc2NC1=O
inhibition (INH) (Mus musculus [36]): 69%

CC1(C)C(C(=O)NC(N)=O)C1(C)C [2,2,3,3-TETRAMETHYLCYCLOPROPANECARBONYLUREA]
ED50 (Rattus norvegicus [34]): 92 mg/kg | ED50 (Mus musculus [37]): 90 mg/kg | selectivity ratio [38]: 18.5 | ED50 (Rattus norvegicus [39]): 29 mg/kg

O=[N+]([O-])c1ccc(C2CC(c3ccc(Cl)cc3)=Nc3ccccc3N2)cc1 (stereo not drawn)
Activity (Rattus norvegicus [40]): 56% | Time (Rattus norvegicus [41]): 7.25 s

Source: ChEMBL document CHEMBL5241104, “Reactive metabolites of the anticonvulsant drugs and approaches to minimize the adverse drug reaction” (Eur J Med Chem, 2021)
